The subject of experiment [1] is HCAEC. Kind of experiment: Release of CAM-specific EMP from TNF-α-activated HCAEC, two-color flow cytometry with TruCount beads. Type of experiment: cell-based, human. As to conditions: 24 hours. The method, then: HCAECs were purchased from Cambrex Bio Science (Walkersville, Md.) and cultured according to the supplier's specifications. All experiments were performed on confluent cells. EC were treated with 10 ng/mL TNF-α alone or with the addition of fluvatstain (0.1 μmol/mL) or ROK inhibitor, Y-27632 (10 μmol M/L). Controls were un-treated. After 24 hours culture supernatants from flasks containing HCAEC were collected and centrifuged for 30 min at 17,570×g, (4° C.). Pellets were re-suspended in 1 mL of PBS and were analyzed on the same day. For single platform method, 3 μL each of FITC-conjugated and PE-conjugated monoclonal antibodies against the above mentioned CAMs plus 50 μL of re-suspended pellet were added to tubes (two antibodies/tube) preloaded with fluorescent TruCount™ bead lyophilized pellets (Becton Dickinson Biosciences, San Jose, Calif.). Tubes were incubated for 20 min at room temperature. Analysis of EMPs was performed using a FACScan Flow Cytometer (Becton Dickinson Biosciences, San Jose, Calif.). The EMPs were excited with 488 nm light from a 15 mW argon laser. Logarithmic green and red fluorescences of FITC and PE were measured through 530/30 nm and 585/42 nm bandpass filters, respectively. Data from 2,000 events were acquired and analyzed with the use of CELLQuest™ software (version 3.3, Becton Dickinson). The absolute number of EMPs was calculated from the appropriate dot plot values entered into the following formula: [formula] The total number of beads per tube is supplied by the manufacturer and varies among lot numbers. RhoA Activity Statistical analysis was performed using SPSS 10.0.7 statistical software (SPSS Inc., Chicago, Ill.). Values are stated as mean±SEM. One-way ANOVA was used to compare means from three or more groups. In cases where the data were not normally distributed, the Mann-Whitney rank sum test was used. A value of p<0.05 was considered as significant for all tests.
(Flow cytometry measures light scatter and fluorescence of single cells or particles in a stream.)

For experiment [2], the system named is RhoA. Kind of experiment: RhoA activity pull-down assay (Rhotekin Rho Binding Domain agarose, western blot) in HCAEC. As to conditions: TNF-α 10 ng/mL, 24 hours. It counts as cell-based, human. The method, then: HCAECs were purchased from Cambrex Bio Science (Walkersville, Md.) and cultured according to the supplier's specifications. All experiments were performed on confluent cells. EC were treated with 10 ng/mL TNF-α alone or with the addition of fluvatstain (0.1 μmol/mL) or ROK inhibitor, Y-27632 (10 μmol M/L). Controls were un-treated. After 24 hours culture supernatants from flasks containing HCAEC were collected and centrifuged for 30 min at 17,570×g, (4° C.). Pellets were re-suspended in 1 mL of PBS and were analyzed on the same day. RhoA activity was determined by a pull-down assay. The cell lysates were incubated with Rhotekin Rho Binding Domain agarose for 45 minutes. The agarose beads were collected and electrophoresed in 8-16% SDS-PAGE gel (Cambrex, Rockland, Me.). GDP and GTP-labeling of cell lysates served as negative and positive controls, respectively. Western blotting was performed with RhoA antibody at a dilution of 1:200. The blot densities were analyzed with Mocha Image Analysis (version 1.2.10).
(In general: Immunoblotting shows a protein as a band on a membrane.)

Where [3] appears, read: HCAEC, TNF-α 10 ng/mL plus Fluvastatin 0.1 μM/L, mean ± SEM.
Setting [4] is: HCAEC, TNF-α 10 ng/mL plus Fluvastatin 0.1 μM/L, mean ± SEM, listed as Flu.
[5] abbreviates: HCAEC, TNF-α 10 ng/mL plus Y-27632 (10 μmol M/L), mean ± SEM.
The mark [6] stands for this setting: HCAEC, TNF-α 10 ng/mL alone, mean ± SEM, six experiments.
Where [7] appears, read: HCAEC, TNF-α 10 ng/mL, versus control, not significant.

“And” between values parts separate entries of the source, which are not always exact repeats. Identical values can stand only once.

Regarding `CC(C)n1c(/C=C/C(O)CC(O)CC(=O)O)c(-c2ccc(F)cc2)c2ccccc21` (centres unmarked) [Fluvastatin], in experiment [1] (setting [3]), the “absolute count of EMP, CD51 (Vitronectin)” value (“absolute count of EMP, CD51” below) is 43 ±7.3 ×10^6/mL; the “absolute count of EMP, CD62E (ELAM)” value was 80 ± 7 ×10^6/mL; the “absolute count of EMP, CD105 (Endoglin)” value is given as 45±7.6 ×10^6/mL. Besides, in experiment [1] (setting [4]), the “absolute count of EMP, CD31 (PECAM-1)” value is 231 ± 80 ×10^6/mL; the “absolute count of EMP, CD51” value is 43 ± 7 ×10^6/mL; the “absolute count of EMP, CD 54 (ICAM-1)” value is given as 125 ± 35 ×10^6/mL; the “absolute count of EMP, CD105 (Endoglin)” value is given as 45 ± 8 ×10^6/mL. Besides, the “absolute count of EMP, CD106 (VCAM-1)” value in experiment [1] (setting [4]) is 167 ± 45 ×10^6/mL. In experiment [1] (TNF-α-activated HCAEC, versus TNF-α alone, not statistically significant), the “suppression of CD62+ EMP” value is on record as 19%.
Take `C[C@@H](N)[C@H]1CC[C@H](C(=O)Nc2ccncc2)CC1` [Y-27632]: in experiment [1] (setting [5]), the “absolute count of EMP, CD51” value is given as 44 ± 10 ×10^6/mL; the “absolute count of EMP, CD62E (ELAM)” value is on record as 65 ± 13 ×10^6/mL; the “absolute count of EMP, CD105 (Endoglin)” value is reported as 56±13 ×10^6/mL.
Turning to tumor necrosis factor-α [TNF-α], in experiment [1] (setting [6]), the “absolute count of EMP, CD31 (PECAM-1)” value is reported as 233±77 ×10^6/mL; the “absolute count of EMP, CD51” value is 76.4±46 ×10^6/mL and 76 ± 46 ×10^6/mL; the “absolute count of EMP, CD 54 (ICAM-1)” value is on record as 129 ± 44 ×10^6/mL; the “absolute count of EMP, CD62E (ELAM)” value is recorded as 99 ± 3 ×10^6/mL. Also, the “absolute count of EMP, CD105 (Endoglin)” value in experiment [1] (setting [6]) is 124±34 ×10^6/mL. For the same compound, in experiment [1] (setting [7]), the “increase of CD54 positive EMP” value amounted to 57% and the “increase of CD62 positive EMP” value turned out to be 15%. In addition, the RhoA activation entry in experiment [2] is “induced”.

The values are drawn from US20050272098A1, “Quantitation of endothelial microparticles” (priority 2004, published 2005).
